Results as given in ChEMBL document CHEMBL1201862, “PubChem BioAssay data set” (2004).
One block for each compound: values may come before it. Active and inactive are the calls of the source.

Experiments:
[1] = target: T1, Apoptotic protease-activating factor 1 (Homo sapiens, UniProt O14727); type: functional
T1 sequence (O14727 whole entry): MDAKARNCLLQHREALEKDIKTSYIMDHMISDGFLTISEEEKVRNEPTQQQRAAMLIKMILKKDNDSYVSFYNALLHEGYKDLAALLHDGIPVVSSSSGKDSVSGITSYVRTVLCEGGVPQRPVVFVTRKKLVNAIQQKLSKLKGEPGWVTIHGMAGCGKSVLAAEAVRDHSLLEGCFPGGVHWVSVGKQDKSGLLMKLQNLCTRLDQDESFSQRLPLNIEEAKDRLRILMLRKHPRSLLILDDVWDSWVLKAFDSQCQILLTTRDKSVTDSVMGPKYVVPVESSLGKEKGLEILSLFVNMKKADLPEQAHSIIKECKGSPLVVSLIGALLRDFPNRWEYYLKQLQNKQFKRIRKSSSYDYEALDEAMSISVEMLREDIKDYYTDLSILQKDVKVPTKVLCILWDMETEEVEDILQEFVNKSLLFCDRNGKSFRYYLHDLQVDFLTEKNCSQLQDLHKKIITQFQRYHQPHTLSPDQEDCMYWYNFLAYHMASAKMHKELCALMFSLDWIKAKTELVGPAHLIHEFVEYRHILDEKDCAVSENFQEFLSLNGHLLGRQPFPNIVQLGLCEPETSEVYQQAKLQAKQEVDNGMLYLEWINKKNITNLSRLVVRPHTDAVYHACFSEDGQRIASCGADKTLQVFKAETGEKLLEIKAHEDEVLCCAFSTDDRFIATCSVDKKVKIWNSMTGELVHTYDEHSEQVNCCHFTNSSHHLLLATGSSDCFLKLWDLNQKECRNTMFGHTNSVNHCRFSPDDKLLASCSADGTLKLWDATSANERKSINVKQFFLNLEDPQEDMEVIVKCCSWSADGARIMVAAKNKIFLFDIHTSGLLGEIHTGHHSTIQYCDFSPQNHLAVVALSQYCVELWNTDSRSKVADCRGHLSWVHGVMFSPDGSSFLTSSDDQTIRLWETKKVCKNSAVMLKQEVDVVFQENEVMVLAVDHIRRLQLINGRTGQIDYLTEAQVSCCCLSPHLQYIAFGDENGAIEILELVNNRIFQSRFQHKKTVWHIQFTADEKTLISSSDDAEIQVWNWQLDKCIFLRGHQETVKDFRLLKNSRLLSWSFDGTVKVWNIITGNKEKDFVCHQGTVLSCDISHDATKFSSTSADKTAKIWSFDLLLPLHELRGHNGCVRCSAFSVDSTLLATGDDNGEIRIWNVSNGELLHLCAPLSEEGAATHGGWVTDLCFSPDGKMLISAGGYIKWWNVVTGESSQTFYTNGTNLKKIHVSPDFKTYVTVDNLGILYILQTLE

Bcl-2-related protein A1 = target: T2, Bcl-2-related protein A1 (Mus musculus, UniProt Q07440); type: functional;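 further: confirmatory dose–response counterscreen on Bfl-1, used to check hits from a UBC13 polyubiquitin inhibitor campaign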
T2 sequence (Q07440 whole entry): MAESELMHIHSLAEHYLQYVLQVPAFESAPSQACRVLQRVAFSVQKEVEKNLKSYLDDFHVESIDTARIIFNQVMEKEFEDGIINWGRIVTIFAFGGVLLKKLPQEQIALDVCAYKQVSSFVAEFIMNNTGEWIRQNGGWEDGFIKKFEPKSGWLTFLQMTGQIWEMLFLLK

[2] = target: T3, Ubiquitin-conjugating enzyme E2 N (Homo sapiens, UniProt P61088); type: functional
T3 sequence (P61088 whole entry): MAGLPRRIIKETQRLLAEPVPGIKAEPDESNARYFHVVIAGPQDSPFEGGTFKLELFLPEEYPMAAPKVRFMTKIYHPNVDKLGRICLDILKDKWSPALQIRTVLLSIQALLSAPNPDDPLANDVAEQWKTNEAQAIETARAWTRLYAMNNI

[3] = target: T3, Ubiquitin-conjugating enzyme E2 N; type: functional; remark: listed apart in the source
[4] = target: Heat shock protein HSP 90-alpha (Homo sapiens, UniProt P07900); type: functional, organism-based
INS1 = assay: INS-1E survival protection against cytokine death – cell-based, luminescence, retest, dose response (AID 449756); type: functional; conditions: Rattus norvegicus;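 further: cell death triggered by IL-1 beta plus TNF-alpha plus IFN-gamma mixture; protective hits raise ATP signal compared with cytokine alone wells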
[5] = target: T4, DNA repair protein RAD52 homolog (Homo sapiens, UniProt P43351); type: functional, biochemical
T4 sequence (P43351 whole entry): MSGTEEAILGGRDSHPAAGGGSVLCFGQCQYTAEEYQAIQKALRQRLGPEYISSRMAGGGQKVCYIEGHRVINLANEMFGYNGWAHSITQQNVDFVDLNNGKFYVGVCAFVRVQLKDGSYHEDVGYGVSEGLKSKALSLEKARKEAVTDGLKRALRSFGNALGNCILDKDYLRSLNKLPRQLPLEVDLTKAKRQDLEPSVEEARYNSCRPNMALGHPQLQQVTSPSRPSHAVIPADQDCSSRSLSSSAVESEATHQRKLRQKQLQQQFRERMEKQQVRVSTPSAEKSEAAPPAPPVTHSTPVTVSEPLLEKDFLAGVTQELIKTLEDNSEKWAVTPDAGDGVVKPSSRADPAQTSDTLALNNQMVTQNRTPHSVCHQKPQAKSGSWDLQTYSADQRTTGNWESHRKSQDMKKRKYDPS

[6] = activation of miR-122 Renilla sensor silencing – cell-based, Huh7 psiCHECK-miR122, Renilla luciferase, cherry-picked, dose response (AID 651956); type: functional;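 further: huh7 hepatoma cells stably carrying a psiCHECK-2 miR-122 sensor plasmid; renilla luciferase signal reporting endogenous miR-122 activity after 48 h compound exposure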
[7] = target: 26S proteasome non-ATPase regulatory subunit 14 (Homo sapiens, UniProt O00487); assay: inhibition of proteasome subunit RPN11 – biochemical, fluorescence polarization, uHTS hits, confirmation (AID 602368); type: functional
26S proteasome non-ATPase regulatory subunit 14, sequence (O00487 whole entry): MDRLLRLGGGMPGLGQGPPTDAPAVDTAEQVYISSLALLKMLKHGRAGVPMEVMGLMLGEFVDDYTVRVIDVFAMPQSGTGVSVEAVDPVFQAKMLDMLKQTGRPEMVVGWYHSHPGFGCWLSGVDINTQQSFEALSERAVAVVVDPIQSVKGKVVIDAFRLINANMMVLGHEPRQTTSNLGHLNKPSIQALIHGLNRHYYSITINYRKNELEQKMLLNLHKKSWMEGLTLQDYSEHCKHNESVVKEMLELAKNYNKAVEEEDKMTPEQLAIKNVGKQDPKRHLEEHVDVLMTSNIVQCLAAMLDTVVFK

[8] = target: 72 kDa type IV collagenase (Homo sapiens, UniProt P08253); assay: Dose Response validation of uHTS RPN11 inhibitor hits using a MMP-2 Fluorescence assay.; type: functional
72 kDa type IV collagenase, sequence (P08253 whole entry): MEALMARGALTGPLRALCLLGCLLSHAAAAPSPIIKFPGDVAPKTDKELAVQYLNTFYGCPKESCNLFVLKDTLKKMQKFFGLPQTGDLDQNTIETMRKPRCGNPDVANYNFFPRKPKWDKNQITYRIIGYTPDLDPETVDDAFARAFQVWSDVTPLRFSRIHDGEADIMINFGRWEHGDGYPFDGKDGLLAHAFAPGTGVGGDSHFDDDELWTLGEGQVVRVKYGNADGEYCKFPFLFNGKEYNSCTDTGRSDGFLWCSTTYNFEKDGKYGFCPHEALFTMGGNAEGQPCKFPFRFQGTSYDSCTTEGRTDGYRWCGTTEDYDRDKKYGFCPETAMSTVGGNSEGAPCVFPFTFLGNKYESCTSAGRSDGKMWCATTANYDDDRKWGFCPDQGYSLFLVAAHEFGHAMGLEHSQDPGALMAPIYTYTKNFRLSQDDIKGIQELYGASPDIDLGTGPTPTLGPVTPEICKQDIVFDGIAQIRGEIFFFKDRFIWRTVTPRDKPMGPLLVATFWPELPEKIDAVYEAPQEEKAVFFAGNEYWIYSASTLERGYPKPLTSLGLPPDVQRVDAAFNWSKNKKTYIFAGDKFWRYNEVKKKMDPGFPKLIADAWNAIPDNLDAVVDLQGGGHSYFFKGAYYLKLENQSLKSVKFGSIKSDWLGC

Prothrombin = Prothrombin (Bos taurus, UniProt P00735); assay: thrombin protease inhibitors – biochemical, fluorescence polarization, uHTS hits, dose response (AID 602369); type: functional
Aminopeptidase N = target: T5, Aminopeptidase N (Plasmodium falciparum FcB1/Columbia, UniProt O96935); assay: malaria alanyl aminopeptidase activity blockers – biochemical, fluorogenic H-Leu-NHMec substrate, 1536-well (AID 1445); parameters: species or system Plasmodium falciparum 3D7, 3D7
T5 sequence (O96935 whole entry): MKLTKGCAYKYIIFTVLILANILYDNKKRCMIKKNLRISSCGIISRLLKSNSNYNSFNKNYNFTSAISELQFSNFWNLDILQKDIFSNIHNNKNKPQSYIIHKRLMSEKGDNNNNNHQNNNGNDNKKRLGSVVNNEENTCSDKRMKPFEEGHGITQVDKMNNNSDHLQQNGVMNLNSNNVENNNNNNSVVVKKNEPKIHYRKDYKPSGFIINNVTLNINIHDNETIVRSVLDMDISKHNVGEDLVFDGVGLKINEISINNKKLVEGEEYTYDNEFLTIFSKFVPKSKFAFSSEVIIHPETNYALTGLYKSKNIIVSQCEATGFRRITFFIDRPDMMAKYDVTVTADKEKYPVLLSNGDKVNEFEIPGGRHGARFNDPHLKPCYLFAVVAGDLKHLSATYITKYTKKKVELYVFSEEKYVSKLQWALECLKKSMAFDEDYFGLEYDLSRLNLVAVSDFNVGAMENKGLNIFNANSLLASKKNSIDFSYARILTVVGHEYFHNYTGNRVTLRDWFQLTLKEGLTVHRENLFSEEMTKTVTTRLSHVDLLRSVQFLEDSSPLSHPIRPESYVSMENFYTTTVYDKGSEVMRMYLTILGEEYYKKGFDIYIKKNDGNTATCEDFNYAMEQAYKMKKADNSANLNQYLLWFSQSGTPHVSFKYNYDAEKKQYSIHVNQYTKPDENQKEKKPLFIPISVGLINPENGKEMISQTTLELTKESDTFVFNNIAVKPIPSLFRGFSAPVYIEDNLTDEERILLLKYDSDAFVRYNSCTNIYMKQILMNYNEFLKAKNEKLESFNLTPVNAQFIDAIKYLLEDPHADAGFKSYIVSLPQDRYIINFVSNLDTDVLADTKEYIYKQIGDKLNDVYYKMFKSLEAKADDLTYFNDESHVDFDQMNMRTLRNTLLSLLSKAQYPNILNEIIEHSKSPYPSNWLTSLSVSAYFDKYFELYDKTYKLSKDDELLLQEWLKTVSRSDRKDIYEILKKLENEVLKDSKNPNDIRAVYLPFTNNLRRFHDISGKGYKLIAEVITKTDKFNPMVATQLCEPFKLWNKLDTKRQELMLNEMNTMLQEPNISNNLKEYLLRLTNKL

[9] = target: T6, Carboxy-terminal domain RNA polymerase II polypeptide A small phosphatase 1 (Homo sapiens, UniProt Q9GZU7); assay: CTDSP1 inhibitors, concentration-response, biochemical, absorbance readout, ultra-high-throughput screen actives (AID 540297); type: functional
T6 sequence (Q9GZU7 whole entry): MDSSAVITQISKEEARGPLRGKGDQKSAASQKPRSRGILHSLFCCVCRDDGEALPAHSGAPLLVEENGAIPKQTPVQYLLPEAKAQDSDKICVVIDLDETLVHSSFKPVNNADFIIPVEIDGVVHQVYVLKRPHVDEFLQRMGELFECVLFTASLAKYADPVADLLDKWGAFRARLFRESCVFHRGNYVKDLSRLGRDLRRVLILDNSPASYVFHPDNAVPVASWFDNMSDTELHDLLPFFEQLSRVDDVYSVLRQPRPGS

[10] = target: T7, Small ubiquitin-related modifier 1 (Homo sapiens, UniProt P63165); assay: SUMO1 protein interaction blockers, potency – biochemical, fluorescence polarization, uHTS hits, dose response (AID 624382); type: functional; conditions: read-out: IC50_Mean
T7 sequence (P63165 whole entry): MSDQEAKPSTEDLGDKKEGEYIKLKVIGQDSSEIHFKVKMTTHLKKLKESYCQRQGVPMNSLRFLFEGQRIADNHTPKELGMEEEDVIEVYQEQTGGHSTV

[11] = target: T7, Small ubiquitin-related modifier 1; assay: SUMO1 protein-protein binding blockers, potency – biochemical, FRET, dose response (AID 624383); type: functional; conditions: read-out: IC50_Mean
P388/ADR = assay: cells; type: functional; conditions: Mus musculus
SN12K1 = assay: cells; type: functional; conditions: Homo sapiens

- IC50 [1]: > 100 µM (inactive)
Structure (SMILES): C=CCn1c(COc2cccc(C)c2)nnc1SC(C)C(=O)NC1CC1 (centres undefined)

Structure (SMILES): Cc1cc(C(C)(C)CC(C)(C)C)ccc1OCCOCC[N+](C)(C)Cc1ccccc1
- IC50 (Bcl-2-related protein A1): 14.9 µM (active)
- IC50 [2]: 8.92 µM (active)
- IC50 [3]: 9.49 µM (active)
- AC50 [4]: 7.56 µM (active)
- IC50 [1]: 21.3 µM (active)
- AC50 (INS1): 2.41 µM (active)
- AC50 [5]: 20.4 µM (active)

Structure (SMILES): CCC(=O)N(C)C[C@@H]1[C@H](c2ccc(-c3ccccc3F)cc2)[C@H](CO)N1C(C)=O
- AC50 [6]: 49.5 µM (active)

- IC50 [7]: 32.5 µM (active)
- IC50 [8]: > 100 µM (inactive)
- IC50 (Prothrombin): 53.3 µM (active)
Structure (SMILES): Cn1cncc1C#Cc1ccc2cc(C3(O)CCCCC3)oc(=O)c2c1

- IC50 (Aminopeptidase N): 21.7 µM (active)
- IC50 [9]: 8.51 µM (active)
- IC50 [7]: 24.8 µM (active)
- IC50 [8]: > 100 µM (inactive)
- IC50 (Prothrombin): 68.5 µM (active)
Structure (SMILES): COc1ccccc1N1C(=N)S/C(=C\c2ccc(-c3ccccc3C(=O)O)o2)C1=O

Structure (SMILES): CN1C(=O)c2cc(NC(=O)c3cccc(F)c3)ccc2OC[C@@H]2O[C@H](CC(=O)O)CC[C@H]21
- AC50 [6]: 51.2 µM (active)

Structure (SMILES): CCCCCCC(=O)Nc1nc(C)c(-c2csc(Nc3cc(OC)ccc3OC)n2)s1
- IC50 [10]: > 66.6 µM (inactive)
- IC50 [11]: 11.2 µM (active)

Structure (SMILES): C/C(=C/c1c(C)[nH]c(=O)[nH]c1=O)C(=O)O
- GI50 (P388/ADR): 813 µM (inactive)
- GI50 (SN12K1): > 1370 µM (inactive)

Structure (SMILES): COc1ccc(-n2c(SCC(=O)Nc3cccc(S(N)(=O)=O)c3)nc3ccccc3c2=O)cc1OC
- IC50 [10]: > 66.6 µM (inactive)
- IC50 [11]: 4.19 µM (active)
